Here are results for three compounds from patent US12636376B2, “Methods and compositions for use of growth factor antibodies in combination with non-tyrosine targeting kinase inhibitors” (In3Bio Ltd., priority 2019, dated 2026).

For series [1] the following is noted: cited from earlier work.
The test system of series [2] is pEGFR, pAkt, pErk½ signaling in H508 cells. The experiment in a line: Western blot of pEGFR, pAkt, pErk½ signaling, 2 hour incubation, H508 cells. The settings on record: 2 hour incubation with EGF, FIG. 20. The series is classed as cell-based. In general terms: A western blot detects proteins with antibodies after separation by electrophoresis.
For series [3] the following is noted: patients taking Alpelisib; cited from earlier work.

Take `COC(=O)N[C@@H](C)CNc1nccc(-c2cn(C(C)C)nc2-c2cc(Cl)cc(NS(C)(=O)=O)c2F)n1` [Encorafenib, methyl N-[(2S)-1-[[4-[3-[5-chloro-2-fluoro-3-(methanesulfonamido)phenyl]-1-propan-2-ylpyrazol-4-yl]pyrimidin-2-yl]amino]propan-2-yl]carbamate]: in series [1] (after oral administration), the “median Tmax” value was 2 h. Also, in series [1] (oral administration), the dose absorbed entry is on record as “At least 86%”.
Usually bioavailability stands for dose-corrected exposure relative to a reference, in per cent. Regarding `CC(=O)Nc1cccc(-n2c(=O)n(C3CC3)c(=O)c3c(Nc4ccc(I)cc4F)n(C)c(=O)c(C)c32)c1` [Trametinib, N-[3-[3-cyclopropyl-5-(2-fluoro-4-iodoanilino)-6,8-dimethyl-2,4,7-trioxopyrido[4,3-d]pyrimidin-1-yl]phenyl]acetamide], the Elimination half-life in series [1] (human, in vivo) was 93.6 to 115 h. Further, the “peak plasma concentration occurred post-dose (Tmax)” value in series [1] (oral administration, patients with BRAF V600 mutation-positive melanoma) was 1.5 h. The bioavailability in series [1] (single 2 mg oral dose) is given as 72%.
In the case of `Cc1nc(NC(=O)N2CCC[C@H]2C(N)=O)sc1-c1ccnc(C(C)(C)C(F)(F)F)c1` [Alpelisib, (2S)-1-N-[4-methyl-5-[2-(1,1,1-trifluoro-2-methylpropan-2-yl)pyridin-4-yl]-1,3-thiazol-2-yl]pyrrolidine-1,2-dicarboxamide], in series [2], the pAkt entry is recorded as “inhibit pAkt” and the “pEGFR or pErk½ signaling” value is recorded as “do not affect”. Further, in series [3], the “dose dependent benefit from treatment: advantage of 300 mg once daily over 150 mg twice daily” value is on record as 22% and the “dose dependent benefit from treatment: advantage of a 200 mg daily dose over a 100 mg dose” value is recorded as 51%.
